Test results published in patent US12624024B2, “EP2 antagonist compounds” (Reservoir Neuroscience, Inc., priority 2021, dated 2026).

molecular target: T1, EP2 receptor (Homo sapiens, UniProt P43116); test: EP2 Potency Assay (cAMP TR-FRET, CHO-K1 cells transfected with EP2 receptor, PGE2 at EC80); type: cell-based; conditions: CHO-K1 cells expressing EP2, prostaglandin E2 at EC80, read-out: EP2 Potency (IC50 category)
T1 construct: expressed in transfected cells; host or cells: CHO-K1 cells (ATCC), transient transfection with FuGENE 6
T1 sequence (P43116 whole entry): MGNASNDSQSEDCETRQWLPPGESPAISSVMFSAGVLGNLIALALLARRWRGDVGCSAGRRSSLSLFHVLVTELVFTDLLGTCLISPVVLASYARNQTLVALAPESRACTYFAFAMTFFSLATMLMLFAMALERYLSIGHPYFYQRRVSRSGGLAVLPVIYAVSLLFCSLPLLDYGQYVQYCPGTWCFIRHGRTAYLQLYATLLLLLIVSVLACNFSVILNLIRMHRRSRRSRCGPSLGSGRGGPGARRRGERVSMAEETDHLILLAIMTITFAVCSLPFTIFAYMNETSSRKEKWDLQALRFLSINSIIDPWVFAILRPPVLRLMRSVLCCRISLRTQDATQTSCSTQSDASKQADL
Procedure: Compound potency was measured using a cAMP TR-FRET assay.
After 6 hours incubation, the cell media was replaced with F12 medium supplemented with 10% FBS and 100 U/ml Pen-Strep. 24 hours after transfection, cells were harvested and seeded at a density of 3000 cells/well in a 384 well plate to perform the cAMP assay, using the LANCE Ultra cAMP assay kit (PerkinElmer).
Plates were then centrifuged at 1000 rpm for 1 min, agitated at 600 rpm at R.T. for 2 min, and incubated at 25° C. for 5 min. The reference agonist, prostaglandin E2 (MCE), was added to each well at the appropriate concentration to reach its EC80 value. Plates were then centrifuged at 1000 rpm for 1 min, agitated at 600 rpm at R.T. for 2 min, and incubated at 25° C. for 30 min.
A dose-response curve was prepared by plotting percent inhibition for each compound concentration, and then IC50 was calculated by fitting a curve to the plotted values and extrapolating the IC50 concentration.

IC50, 1000 to 5000 nM:
COc1ncc(CN2CCOc3c(Cl)cc(-n4ccc5cc(F)c(F)cc54)cc3C2)cn1 [Compound 24]
Fc1ccc2c(ccn2-c2cc(Cl)c3c(c2)CN(Cc2ccnc(NC4COC4)n2)CCO3)c1 [Compound 162, 4-{[9-chloro-7-(5-fluoroindol-1-yl)-3,5-dihydro-2H-1,4-benzoxazepin-4-yl]methyl}-N-(oxetan-3-yl)pyrimidin-2-amine]
Fc1ccc2c(ccn2-c2cc(Cl)c3c(c2)CN(Cc2cnsn2)CCO3)c1 [Compound 113]
COc1ncc(CN2CCOc3c(Cl)cc(-c4cccc5nccn45)cc3C2)cn1 [Compound 39]
COc1ncc(CN2CCOc3c(Cl)cc(-n4cc(C(F)(F)F)c5ccccc54)cc3C2)cn1 [Compound 17, 9-chloro-4-[(2-methoxypyrimidin-5-yl)methyl]-7-[3-(trifluoromethyl)indol-1-yl]-3,5-dihydro-2H-1,4-benzoxazepine]
Fc1ccc2c(ccn2-c2cc(Cl)c3c(c2)CN(Cc2nnco2)CCO3)c1 [Compound 111, 9-chloro-7-(5-fluoroindol-1-yl)-4-(1,3,4-oxadiazol-2-ylmethyl)-3,5-dihydro-2H-1,4-benzoxazepine]
Cc1c(-n2ccc3cc(F)ccc32)cc(Cl)c2c1CN(Cc1cc[nH]c(=O)c1)CCO2 [Compound 238]
Cc1c(CN2CCOc3c(Cl)cc(-n4ccc5cc(F)ccc54)cc3C2)ccnc1Cl [Compound 191]
O=C(O)[C@H]1CC[C@@H](CN2CCOc3c(Cl)cc(-n4ccc5cc(F)ccc54)cc3C2)CC1 [Compound 132, cis-4-{[9-chloro-7-(5-fluoroindol-1-yl)-3,5-dihydro-2H-1,4-benzoxazepin-4-yl]methyl}cyclohexane-1-carboxylic acid]
O=c1ncc(CN2CCOc3c(Cl)cc(-n4ccc5cc(F)ccc54)cc3C2)c(O)[nH]1 [Compound 157, 5-{[9-chloro-7-(5-fluoroindol-1-yl)-3,5-dihydro-2H-1,4-benzoxazepin-4-yl]methyl}-4-hydroxy-3H-pyrimidin-2-one]
O=C1NN=CC1CN1CCOc2c(Cl)cc(-n3ccc4cc(F)ccc43)cc2C1 (centres unmarked) [Compound 199]
O=c1ncc(CN2CCOc3c(Cl)cc(N4CCOc5cc(F)ccc54)cc3C2)c[nH]1 [Compound 81]
COc1ncc(CN2CCOc3c(Cl)cc(-n4ccc5cc(F)cnc54)cc3C2)cn1 [Compound 33, 9-chloro-7-(5-fluoro-1H-pyrrolo[2,3-b]pyridin-1-yl)-4-((2-methoxypyrimidin-5-yl)methyl)-2,3,4,5-tetrahydrobenzo[f][1,4]oxazepine]
O=c1ncc(CN2CCOc3c(Cl)cc(-n4ccc5cc(C(F)(F)F)ccc54)cc3C2)c[nH]1 [Compound 60]
COc1ncc(CN2CCOc3c(Cl)cc(-n4ccc5cccnc54)cc3C2)cn1 [Compound 32]
CC(C)(C)OC(=O)NCc1ncc(CN2CCOc3c(Cl)cc(-n4ccc5cc(F)ccc54)cc3C2)cn1 [Compound 140, tert-butyl N-[(5-{[9-chloro-7-(5-fluoroindol-1-yl)-3,5-dihydro-2H-1,4-benzoxazepin-4-yl]methyl}pyrimidin-2-yl)methyl]carbamate]

IC50, > 5000 nM:
Fc1ccc2c(ccn2-c2cc(Cl)c3c(c2)CN(Cc2cscn2)CCO3)c1 [Compound 100, 9-chloro-7-(5-fluoroindol-1-yl)-4-(1,3-thiazol-4-ylmethyl)-3,5-dihydro-2H-1,4-benzoxazepine]
COc1n[nH]cc1CN1CCOc2c(Cl)cc(-n3ccc4cc(F)ccc43)cc2C1 [Compound 105, 9-chloro-7-(5-fluoroindol-1-yl)-4-[(3-methoxy-1H-pyrazol-4-yl)methyl]-3,5-dihydro-2H-1,4-benzoxazepine]
Fc1ccc2c(ccn2-c2cc(Cl)c3c(c2)CN(Cc2ccsc2)CCO3)c1 [Compound 92]
O=c1nccc(CN2CCOc3c(Cl)cc(-n4ccc5cc(F)ccc54)cc3C2)[nH]1 [Compound 164]
COc1ncc(CN2CCOc3c(Cl)cc(-c4cccc5c4CCCC5)cc3C2)cn1 [Compound 55]
COC(=O)[C@H]1CC[C@@H](CN2CCOc3c(Cl)cc(-n4ccc5cc(F)ccc54)cc3C2)CC1 [Compound 134]
O=c1ncc(CN2CCOc3c(Cl)cc(-n4ccc5nccnc54)cc3C2)c[nH]1 [Compound 76, 5-[(9-chloro-7-{pyrrolo[2,3-b]pyrazin-5-yl}-3,5-dihydro-2H-1,4-benzoxazepin-4-yl)methyl]-1H-pyrimidin-2-one trifluoroacetic acid]
Fc1ccc2c(ccn2-c2cc(Cl)c3c(c2)CN(Cc2cnc[nH]2)CCO3)c1 [Compound 107]
O=c1ncc(CN2CCOc3c(Cl)cc(-n4ccc5cc(Cl)ncc54)cc3C2)c[nH]1 [Compound 72]
Cn1ccc(CN2CCOc3c(Cl)cc(-n4ccc5cc(F)ccc54)cc3C2)n1 [Compound 102]
Fc1ccc2c(ccn2-c2cc(Cl)c3c(c2)CN(Cc2ccnc(C4CNC4)c2)CCO3)c1 [Compound 188, 4-{[2-(azetidin-3-yl)pyridin-4-yl]methyl}-9-chloro-7-(5-fluoroindol-1-yl)-3,5-dihydro-2H-1,4-benzoxazepine; trifluoroacetic acid]
Fc1ccc2c(ccn2-c2cc(Cl)c3c(c2)CN(Cc2cncnc2)CC3)c1 [Compound 222]
O=c1ncc(CN2CCOc3c(Cl)cc(-c4cccc5c4OCCO5)cc3C2)c[nH]1 [Compound 85]
CC(C)(C)OC(=O)n1cccc1CN1CCOc2c(Cl)cc(-n3ccc4cc(F)ccc43)cc2C1 [Compound 88]
COc1ncc(CN2CCOc3c(Cl)cc(-n4ccc5cc(N(C)C)ccc54)cc3C2)cn1 [Compound 18]
COc1ncc(CN2CCOc3c(Cl)cc(-n4ccc5cc(C(F)(F)F)ccc54)cc3C2)cn1 [Compound 15]
Oc1ccccc1CN1CCOc2c(Cl)cc(-n3ccc4cc(F)ccc43)cc2C1 [Compound 119]
O=c1cc(CN2Cc3cc(-n4ccc5cc(F)ccc54)cc(Cl)c3OCC23COC3)cc[nH]1 [Compound 229]
O=c1cc(CN2Cc3cc(-n4ccc5cc(F)ccc54)cc(Cl)c3OCC23CC3)cc[nH]1 [Compound 230]
Fc1ccc2c(ccn2-c2cc(Cl)c3c(c2)CN(Cc2ncon2)CCO3)c1 [Compound 110]
COc1ncc(CN2CCOc3c(Cl)cc(-n4cc(Cl)c5cc(Cl)ccc54)cc3C2)cn1 [Compound 29]
Fc1ccc2c(ccn2-c2cc(Cl)c3c(c2)CN(Cc2cc[nH]n2)CCO3)c1 [Compound 101]
Fc1ccc2c(ccn2-c2cc(Cl)c3c(c2)CN(Cc2cccc(C(F)F)c2)CCO3)c1 [Compound 123]
Fc1ccc2c(ccn2-c2cc(Cl)c3c(c2)CN(Cc2ccc[nH]2)CCO3)c1 [Compound 87]
O=c1[nH]ccc(CN2CCOc3c(Cl)cc(-n4ccc5cc(F)ccc54)cc3C2)c1C(F)(F)F [Compound 195]
COC(=O)[C@H]1CC[C@H](CN2CCOc3c(Cl)cc(-n4ccc5cc(F)ccc54)cc3C2)CC1 [Compound 133]

IC50, < 100 nM:
O=c1ncc(CN2CCOc3c(Cl)cc(-n4ccc5c(F)c(F)ccc54)cc3C2)c[nH]1 [Compound 64]

IC50, 500 to 1000 nM:
COc1ncc(CN2CCOc3c(Cl)cc(-n4cc(Cl)c5cc(F)ccc54)cc3C2)cn1 [Compound 27]
CNC(=O)[C@H]1CC[C@H](CN2CCOc3c(Cl)cc(-n4ccc5cc(F)ccc54)cc3C2)CC1 [Compound 127, trans-4-{[9-chloro-7-(5-fluoroindol-1-yl)-3,5-dihydro-2H-1,4-benzoxazepin-4-yl]methyl}-N-methylcyclohexane-1-carboxamide]
COc1ncc(CN2CCOc3c(Cl)cc(-n4ccc5cc(C#N)ccc54)cc3C2)cn1 [Compound 16]
OCc1ncc(CN2CCOc3c(Cl)cc(-n4ccc5cc(F)ccc54)cc3C2)cn1 [Compound 141, (5-{[9-chloro-7-(5-fluoroindol-1-yl)-3,5-dihydro-2H-1,4-benzoxazepin-4-yl]methyl}pyrimidin-2-yl)methanol]
COc1ncc(CN2CCOc3c(Cl)cc(-n4ccc5cc(C)ccc54)cc3C2)cn1 [Compound 14]
COc1ncc(CN2CCOc3c(Cl)cc(-n4ccc5c(F)c(Cl)ccc54)cc3C2)cn1 [Compound 26]
COc1ncc(CN2CCOc3c(Cl)cc(-n4cc(C)c5cc(F)ccc54)cc3C2)cn1 [Compound 31]
C[C@@H]1COc2c(Cl)cc(-n3ccc4cc(F)ccc43)cc2CN1Cc1cc[nH]c(=O)n1 [Compound 12]

IC50, 100 to 500 nM:
OCc1cc(CN2CCOc3c(Cl)cc(-n4ccc5cc(F)ccc54)cc3C2)ccn1 [Compound 183]
O=c1ncc(CN2CCOc3c(Cl)cc(N4CCc5cc(Cl)ccc54)cc3C2)c[nH]1 [Compound 79]
Cc1cn(-c2cc(Cl)c3c(c2)CN(Cc2cnc(=O)[nH]c2)CCO3)c2ccc(F)cc12 [Compound 67]
O=c1ncc(CN2CCOc3c(Cl)cc(N4CCc5cc(F)ccc54)cc3C2)c[nH]1 [Compound 78]
[2H]C1([2H])c2cc(-n3ccc4cc(F)ccc43)cc(Cl)c2OCCN1Cc1cc[nH]c(=O)c1 [Compound 226]
